Test results: patent publication US20250268975A1 (priority 2024, published 2025)
*1 amine or outer side, *2 acyl side, *3 side chain or, on linkers, in order; H or OH if unused. Where a SMILES comes first, the peptide text is derived from it. [ ]: non-standard residue; d: D form. X1 = CCCCCCCCCCCCCCN(CC(=O)[*:2])[*:1]; Nrpe = C[C@@H](NCC(=O)O)c1ccccc1; Nlys = NCCCCNCC(=O)O

Tested on: transgenic Zaire Ebola virus (EBOV) of the Mayinga strain, expressing green fluorescent protein (EBOV-GFP)
Type: cell-based

SMILES: CCCCCCCCCCCCCCNCC(=O)N(CCCCN)CC(=O)N(CC(=O)N(CC(=O)N(CCCCN)CC(N)=O)[C@H](C)c1ccccc1)[C@H](C)c1ccccc1 [MXB-24,816, H-Ntetradec-Nlys-Nspe-Nspe-Nlys-NH2] (H-[X1][Nlys][Nrpe][Nrpe][Nlys]-NH2)
- antiviral activity against Ebola virus (inhibition of viral titers and GFP-positive Ebola virus replication): showed antiviral activity
